Assays:
androgen receptor [1] = molecular target: T1, androgen receptor (Rattus norvegicus, UniProt P15207); experiment: Androgen Receptor Filtration Binding Assay ([3H] R1881 tracer); conditions: @ 1 μM test compound; negative values indicate no antagonist activity; cmpd 4: two separate synthesis batches; cmpds 5 and 7: average of 2
T1 construct: 5 pmol androgen receptor LBD (Panvera); purchased Panvera
T1 sequence (P15207 651-882 limits assumed): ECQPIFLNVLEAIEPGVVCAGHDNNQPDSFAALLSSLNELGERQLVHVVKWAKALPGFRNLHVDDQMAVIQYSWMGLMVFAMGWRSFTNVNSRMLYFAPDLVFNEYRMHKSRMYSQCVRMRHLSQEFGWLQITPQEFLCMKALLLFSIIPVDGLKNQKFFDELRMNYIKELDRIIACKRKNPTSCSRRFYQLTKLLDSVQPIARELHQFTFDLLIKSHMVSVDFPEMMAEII

androgen receptor [2] = molecular target: T1, androgen receptor; experiment: as above; conditions: Androgen Receptor Binding Results
Protocol: In Vitro Assay—Androgen Receptor Filtration Binding Assay
The assay was run on a 96 well plate with each well filled with total reaction volume 150 μL, of a solution containing 5 pmol androgen receptor LBD (Panvera) or 30 μL of freshly prepared rat cytosol, 0.5 nM [^3H] R1881 tracer (NEN), 1.5 μL (10 μM) test compound or vehicle (diluted in 30% DMSO, final concentration of DMSO 0.75%) and […] of TED buffer. (TED buffer contains 10 mM Tris.HCl pH 7.4, 1 mM sodium molybdate (60 mg/250 mL), 1.5 mM EDTA, 1 mM DTT and 10% (v/v) glycerol.)
On day one, the solution containing receptor, tracer and TED buffer was distributed onto a 96 well plate. Diluted test compound or control vehicle was then added to individual wells and the plate incubated at 4° C. overnight.
On day two, to each well was then added 20 μL human γ-globulin (ICN 823102), prepared at 25 mg/ml in TE pH 8.0, and 55 μL 40% polyethylene glycol 8000 (J T Baker U222-08), prepared in TE pH 8.0. The plate was incubated at 4° C. for 60 minutes. During incubation, the harvester was rinsed with 10% PEG 8000, prepared in TE pH 8.0 and the GF/C Unifilter-96 prewet with 10% PEG. The binding reaction was filtered, the retentate was washed three times with 10% PEG and dried under vacuum for about four minutes, then dried at 50° C. for 5 min and then bottom sealed. 25 μL of Microscint-20 (Packard) was added to the filter wells and top sealed. The plate wells were then counted on a TopCount (Packard).
Selected compounds of the present invention were tested for binding to the androgen receptor according to the procedure described above with results as listed in Table 2. Negative number(s) indicate that there is no antagonist activity for the test compound. The compound may however have agonist activity, which was not tested for.

Compound | inhibition at 1 µM (androgen receptor [1]) [%] | inhibition at 10 µM (androgen receptor [2]; @ 10 μM test compound) [%] | IC50 (androgen receptor [2]) [µM]
N#Cc1ccc(NC(=O)C2CSC(c3ccc(F)cc3)=N2)cc1C(F)(F)F (stereo not drawn) [Cmpd #1, 2-(4-fluoro-phenyl)-4,5-dihydro-thiazole-4-carboxylic Acid (3-trifluoromethyl-4-cyano-phenyl)-amide] | 28.5 | 50 | –
N#Cc1ccc(NC(=O)C2CSC(c3ccc(F)cc3)=N2)cc1 (stereo not drawn) [Cmpd #2, 2-(4-fluoro-phenyl)-4,5-dihydro-thiazole-4-carboxylic Acid (4-cyano-phenyl)-amide] | -26 | – | –
N#Cc1ccc(NC(=O)C2CSC(c3cccc(F)c3)=N2)cc1C(F)(F)F (stereo not drawn) [Cmpd #3, 2-(3-fluoro-phenyl)-4,5-dihydro-thiazole-4-carboxylic Acid (4-cyano-3-trifluoromethyl-phenyl)-amide] | 8.1 | – | –
O=C(Nc1ccc(F)c(C(F)(F)F)c1)C1CSC(c2ccc(F)cc2)=N1 (stereo not drawn) [Cmpd #7, 2-(4-fluoro-phenyl)-4,5-dihydro-thiazole-4-carboxylic Acid (4-fluoro-3-trifluoromethyl-phenyl)-amide] | -24.2 | – | –
N#Cc1ccc(NC(=O)C2CSC(c3ccc(Cl)cc3)=N2)cc1C(F)(F)F (stereo not drawn) [Cmpd #9, 2-(4-chloro-phenyl)-4,5-dihydro-thiazole-4-carboxylic acid (4-cyano-3-trifluoromethyl-phenyl)-amide] | 41.5 | – | –
O=C(Nc1ccc([N+](=O)[O-])c(C(F)(F)F)c1)C1CSC(c2ccc(Cl)cc2)=N1 (stereo not drawn) [Cmpd #10, 2-(4-chloro-phenyl)-4,5-dihydro-thiazole-4-carboxylic acid (4-nitro-3-trifluoromethyl-phenyl)-amide] | 60.5 | – | –
O=C(Nc1ccc(Cl)c(C(F)(F)F)c1)C1CSC(c2ccc(Cl)cc2)=N1 (stereo not drawn) [Cmpd #11, 2-(4-chloro-phenyl)-4,5-dihydro-thiazole-4-carboxylic acid (4-chloro-3-trifluoromethyl-phenyl)-amide] | 30.5 | – | 3.5
O=C(Nc1ccc(F)c(C(F)(F)F)c1)C1CSC(c2ccc(Cl)cc2)=N1 (stereo not drawn) [Cmpd #14, 2-(4-chloro-phenyl)-4,5-dihydro-thiazole-4-carboxylic acid (4-fluoro-3-trifluoromethyl-phenyl)-amide] | 1.5 | – | –
O=C(Nc1ccc(Cl)cc1)C1CSC(c2ccc(Cl)cc2)=N1 (stereo not drawn) [Cmpd #16, 2-(4-chloro-phenyl)-4,5-dihydro-thiazole-4-carboxylic Acid (4-chloro-phenyl)-amide] | 12 | – | –
O=C(Nc1ccc(Cl)c(C(F)(F)F)c1)C1CSC(c2cccc(F)c2)=N1 (stereo not drawn) [Cmpd #17, 2-(3-fluoro-phenyl)-4,5-dihydro-thiazole4-carboxylic Acid (4-chloro-3-trifluoromethyl-phenyl)-amide] | -34 | – | –
O=C(Nc1ccc(F)c(C(F)(F)F)c1)C1CSC(c2cccc(F)c2)=N1 (stereo not drawn) [Cmpd #18, 2-(3-fluoro-phenyl)-4,5-dihydro-thiazole-4-carboxylic Acid (4-fluoro-3-trifluoromethyl-phenyl)-amide] | -19 | – | –
CC1(C)SC(c2ccc(F)cc2)=NC1C(=O)Nc1ccc(C#N)c(C(F)(F)F)c1 (stereo not drawn) [Cmpd #19, 2-(4-fluoro-phenyl)-5,5-dimethyl-4,5-dihydro-thiazole-4-carboxylic Acid (4-cyano-3-trifluoromethyl-phenyl)-amide] | -1 | – | –
CC1(C)SC(c2ccc(F)cc2)=NC1C(=O)Nc1ccc([N+](=O)[O-])c(C(F)(F)F)c1 (stereo not drawn) [Cmpd #20, 2-(4-fluoro-phenyl)-5,5-dimethyl-4,5-dihydro-thiazole-4-carboxylic Acid (4-nitro-3-trifluoromethyl-phenyl)-amide] | 29 | – | –
CC1(C)SC(c2ccc(F)cc2)=NC1C(=O)Nc1ccc(Cl)c(C(F)(F)F)c1 (stereo not drawn) [Cmpd #21, 2-(4-fluoro-phenyl)-5,5-dimethyl-4,5-dihydro-thiazole-4-carboxylic Acid (4-chloro-3-trifluoromethyl-phenyl)-amide] | 29 | – | –
CC1(C)SC(c2ccc(Cl)cc2)=NC1C(=O)Nc1ccc(Cl)c(C(F)(F)F)c1 (stereo not drawn) [Cmpd #22, 2-(4-chloro-phenyl)-5,5-dimethyl-4,5-dihydro-thiazole-4-carboxylic Acid (4-chloro-3-trifluoromethyl-phenyl)-amide] | 0 | – | –
CC1(C)SC(c2ccc(Cl)cc2)=NC1C(=O)Nc1cc(F)c(C#N)cc1F (stereo not drawn) [Cmpd #23, 2-(4-chloro-phenyl)-5,5-dimethyl-4,5-dihydro-thiazole-4-carboxylic Acid (4-cyano-2,5-difluoro-phenyl)-amide] | -5 | – | –
O=C(Nc1cccc(C(F)(F)F)c1F)C1CSC(c2ccc(Cl)cc2)=N1 (stereo not drawn) [Cmpd #24, 2-(4-chloro-phenyl)-4,5-dihydro-thiazole-4-carboxylic Acid (2-fluoro-3-trifluoromethyl-phenyl)-amide] | 0.74 | – | –
O=C(Nc1cccc(C(F)(F)F)c1F)C1CSC(c2ccc(F)cc2)=N1 (stereo not drawn) [Cmpd #25, 2-(4-fluoro-phenyl)-4,5-dihydro-thiazole-4-carboxylic Acid (2-fluoro-3-trifluoromethyl-phenyl)-amide] | -8 | – | –
O=C(Nc1ccc(Cl)c(C(F)(F)F)c1)C1CSC(c2cccc(Cl)c2)=N1 (stereo not drawn) [Cmpd #26, 2-(3-chloro-phenyl)-4,5-dihydro-thiazole-4-carboxylic Acid (4-chloro-3-trifluoromethyl-phenyl)-amide] | 15 | – | –
N#Cc1ccc(NC(=O)C2CSC(c3cccc(Cl)c3)=N2)cc1C(F)(F)F (stereo not drawn) [Cmpd #27, 2-(3-chloro-phenyl)-4,5-dihydro-thiazole-4-carboxylic Acid (4-cyano-3-trifluoromethyl-phenyl)-amide] | 34 | – | –
O=C(Nc1ccc(S(=O)(=O)C(F)(F)F)cc1)C1CSC(c2ccc(F)cc2)=N1 (stereo not drawn) [Cmpd #28, 2-(4-fluoro-phenyl)-4,5-dihydro-thiazole-4-carboxylic Acid (4-trifluoromethanesulfonyl-phenyl)-amide] | -6.3 | – | –
O=C(Nc1ccc(S(=O)(=O)C(F)(F)F)cc1)C1CSC(c2ccc(Cl)cc2)=N1 (stereo not drawn) [Cmpd #29, 2-(4-chloro-phenyl)-4,5-dihydro-thiazole-4-carboxylic Acid (4-trifluoromethanesulfonyl-phenyl)-amide] | 25 | – | –
O=C(Nc1ccc([N+](=O)[O-])c(C(F)(F)F)c1)C1CSC(c2cccc(Cl)c2)=N1 (stereo not drawn) [Cmpd #30, 2-(3-chloro-phenyl)-4,5-dihydro-thiazole-4-carboxylic Acid (4-nitro-3-trifluoromethyl-phenyl)-amide] | 7 | – | –
O=C(Nc1ccc(S(=O)(=O)C(F)(F)F)cc1)C1CSC(c2cccc(Cl)c2)=N1 (stereo not drawn) [Cmpd #31, 2-(3-chloro-phenyl)-4,5-dihydro-thiazole-4-carboxylic Acid (4-trifluoromethanesulfonyl-phenyl)-amide] | 10 | – | –
O=C(Nc1cccc(C(F)(F)F)c1F)C1CSC(c2cccc(Cl)c2)=N1 (stereo not drawn) [Cmpd #32, 2-(3-chloro-phenyl)-4,5-dihydro-thiazole4-carboxylic Acid (2-fluoro-3-trifluoromethyl-phenyl)-amide] | 8.5 | – | –
CC1(C(=O)Nc2ccc(C#N)c(C(F)(F)F)c2)CSC(c2ccc(F)cc2)=N1 (stereo not drawn) [Cmpd #33, 2-(4-fluoro-phenyl)-4-methyl-4,5-dihydro-thiazole-4-carboxylic Acid (4cyano-3-trifluoromethyl-phenyl)-amide] | 27 | – | –
O=C(Nc1ccc(Cl)c(C(F)(F)F)c1)C1CSC(c2ccc(F)cc2)=N1 (stereo not drawn) [compound 5, 2-(4-fluoro-phenyl)-4,5-dihydro-thiazole-4-carboxylic Acid (4-chloro-3-trifluoromethyl-phenyl)-amide] | 12.3 | – | –
CC1(C(=O)Nc2ccc(Cl)c(C(F)(F)F)c2)CSC(c2ccc(F)cc2)=N1 (stereo not drawn) [compound 12] | 52 | – | > 10
CC1(C(=O)Nc2ccc([N+](=O)[O-])c(C(F)(F)F)c2)CSC(c2ccc(F)cc2)=N1 (stereo not drawn) [compound 13] | 29 | – | > 10
